Where two headings read alike, the source gives them in different places.
Key:
[1] = target: T1, SARS-CoV-2 PLpro (nsp3 1564–1878) (Severe acute respiratory syndrome coronavirus 2, UniProt P0DTD1); assay: biochemical; parameters: FRET-quenched peptide (Pro3) cleavage by PLpro, 10 min pre-incubation, slope over 20 min, normalised to no-compound control; details: high concentration screen, read-out: % of control remaining
[2] = target: T1, SARS-CoV-2 PLpro (nsp3 1564–1878); assay: biochemical; parameters: FRET-quenched peptide (Pro3) cleavage by PLpro, 10 min pre-incubation, slope over 20 min, normalised to no-compound control; details: low concentration screen, read-out: % of control remaining

COc1cc([C@H]2Oc3cc([C@H]4Oc5cc(O)cc(O)c5C(=O)[C@@H]4O)ccc3O[C@@H]2CO)ccc1O [Silybine]
remaining activity at 3.75 µM ([1]; Well no.=3753): 104% | remaining activity at 1.25 µM ([2]; Well no.=3753): 101%

CCC(C)(C)C(=O)O[C@H]1C[C@@H](C)C=C2C=C[C@H](C)[C@H](CC[C@@H]3C[C@@H](O)CC(=O)O3)[C@H]21 [Simvastatin]
remaining activity at 3.75 µM ([1]; Well no.=1620): 107% | remaining activity at 1.25 µM ([2]; Well no.=1620): 107%

COC1=C[C@@H]2[C@@H]3Cc4ccc(OC)c(O)c4[C@]2(CCN3C)CC1=O [Sinomenine]
remaining activity at 3.75 µM ([1]; Well no.=3757): 98.8% | remaining activity at 1.25 µM ([2]; Well no.=3757): 97.3%

CCc1cc(/C(C)=N/OCc2ccc(C3CCCCC3)c(C(F)(F)F)c2)ccc1CN1CC(C(=O)O)C1 [Siponimod]
remaining activity at 3.75 µM ([1]; Well no.=6669): 93.3% | remaining activity at 1.25 µM ([2]; Well no.=6669): 97.7%

COc1ncc(-c2nc3c(n2C(C)C)[C@H](c2ccc(Cl)cc2)N(c2cc(Cl)cn(C)c2=O)C3=O)c(OC)n1 [Siremadlin]
remaining activity at 3.75 µM ([1]; Well no.=6788): 89.6% | remaining activity at 1.25 µM ([2]; Well no.=6788): 97.9%

CC(NC(=O)c1ccccc1/N=C/c1c(O)ccc2ccccc12)c1ccccc1 (stereo not shown) [Sirtinol]
remaining activity at 3.75 µM ([1]; Well no.=4783): 99.9% | remaining activity at 1.25 µM ([2]; Well no.=4783): 103%

N[C@@H]1CN(c2c(F)cc3c(=O)c(C(=O)O)cn([C@@H]4C[C@@H]4F)c3c2Cl)CC12CC2 [Sitafloxacin hydrate]
remaining activity at 3.75 µM ([1]; Well no.=4770): 93.3% | remaining activity at 1.25 µM ([2]; Well no.=4770): 97.9%

N[C@@H](CC(=O)N1CCn2c(nnc2C(F)(F)F)C1)Cc1cc(F)c(F)cc1F [Sitagliptin phosphate monohydrate]
remaining activity at 3.75 µM ([1]; Well no.=4644): 102% | remaining activity at 1.25 µM ([2]; Well no.=4644): 105%

Cc1cc2c(cc1CC(=O)c1sccc1S(=O)(=O)Nc1onc(C)c1Cl)OCO2 [Sitaxentan sodium (TBC-11251)]
remaining activity at 3.75 µM ([1]; Well no.=4887): 98.3% | remaining activity at 1.25 µM ([2]; Well no.=4887): 95.6%

Cc1cc2c(cc1CC(=O)c1sccc1S(=O)(=O)Nc1onc(C)c1Cl)OCO2 [Sitaxsentan (sodium)]
remaining activity at 3.75 µM ([1]; Well no.=8533): 106% | remaining activity at 1.25 µM ([2]; Well no.=8533): 105%

COc1ccc2c(OC)c3ccoc3nc2c1OC [Skimmianine]
remaining activity at 3.75 µM ([1]; Well no.=3201): 109% | remaining activity at 1.25 µM ([2]; Well no.=3201): 112%

Nc1ccc(C(=O)O)c(O)c1 [Sodium 4-Aminosalicylate]
remaining activity at 3.75 µM ([1]; Well no.=4974): 95.6% | remaining activity at 1.25 µM ([2]; Well no.=4974): 101%

O=C(O)C(O)Cc1ccc(O)c(O)c1 (stereo not shown) [Sodium Danshensu]
remaining activity at 3.75 µM ([1]; Well no.=4868): 100% | remaining activity at 1.25 µM ([2]; Well no.=4868): 100%

NC(=O)C(=O)O [Sodium Oxamate]
remaining activity at 3.75 µM ([1]; Well no.=944): 96.9% | remaining activity at 1.25 µM ([2]; Well no.=944): 97.2%

O=C(O)Cc1ccccc1 [Sodium Phenylacetate]
remaining activity at 3.75 µM ([1]; Well no.=1884): 97.8% | remaining activity at 1.25 µM ([2]; Well no.=1884): 94.7%

O=C(O)CCCc1ccccc1 [Sodium Phenylbutyrate]
remaining activity at 3.75 µM ([1]; Well no.=1582): 103% | remaining activity at 1.25 µM ([2]; Well no.=1582): 106%

O=S(=O)(O)Oc1ccc(C(c2ccc(OS(=O)(=O)O)cc2)c2ccccn2)cc1 [Sodium Picosulfate]
remaining activity at 3.75 µM ([1]; Well no.=4654): 99.8% | remaining activity at 1.25 µM ([2]; Well no.=4654): 103%

CCCC(=O)O [Sodium butyrate]
remaining activity at 3.75 µM ([1]; Well no.=4674): 90% | remaining activity at 1.25 µM ([2]; Well no.=4674): 94.4%

O=C(O)C(Cl)Cl [Sodium dichloroacetate (DCA)]
remaining activity at 3.75 µM ([1]; Well no.=8490): 96.1% | remaining activity at 1.25 µM ([2]; Well no.=8490): 96.6%

O=C(O)c1ccccc1O [Sodium salicylate]
remaining activity at 3.75 µM ([1]; Well no.=4971): 97.2% | remaining activity at 1.25 µM ([2]; Well no.=4971): 98.6%

CNc1cccc(NC(=O)N[C@@H]2N=C(c3ccccn3)c3ccccc3N(CC(=O)C(C)(C)C)C2=O)c1 [Sograzepide]
remaining activity at 3.75 µM ([1]; Well no.=8322): 93% | remaining activity at 1.25 µM ([2]; Well no.=8322): 94.5%

CC(C)=CCC/C(C)=C/CC/C(C)=C/CC/C(C)=C/CC/C(C)=C/CC/C(C)=C/CC/C(C)=C/CC/C(C)=C/CC/C(C)=C/CO [Solanesol]
remaining activity at 3.75 µM ([1]; Well no.=3759): 96.5% | remaining activity at 1.25 µM ([2]; Well no.=3759): 96.8%

C[C@@H]1CC[C@@]2(NC1)O[C@H]1C[C@H]3[C@@H]4CC=C5C[C@@H](O)CC[C@]5(C)[C@H]4CC[C@]3(C)[C@H]1[C@@H]2C [Solasodine]
remaining activity at 3.75 µM ([1]; Well no.=3467): 95.3% | remaining activity at 1.25 µM ([2]; Well no.=3467): 97.1%
